Experimental data reported in patent publication US20240034761A1, “REGENERATION OF MAMMALIAN TISSUES USING SYNTHETIC IMMODULINS” (priority 2022, published 2024).
Marks after values point to notes of the source that are not given here. Square brackets hold non-standard residues; d marks the D form. Ends that are not written are not given here. Peptide text beside a SMILES is read from it.

Assays:
[1] = tested on: THP1-Dual monocyte reporter cell line; assay: Adjuvant effect of helper molecules on immX3 peptide potency in THP1-Dual assay; assay type: cell-based, human
Protocol: (§1) Mammalian cell differentiation assays employed the THP1-Dual monocyte reporter cell line (Invivogen Inc, San Diego, CA) seeded at 2×10e5 cells per well in 96-well plates and cultured at 37 degrees C. in RPMI-1640 growth medium plus 10% fetal bovine serum and 1% penicillin/streptomycin. Cells were subsequently treated for 24 hours with 100 ng/ml Phorbol 12-myristate 13-acetate (PMA protocol; Cayman Chemical Company, Ann Arbor, MI). Peptide (0.33 uM or 0.66 uM, as indicated) was then added, and incubation continued for an additional 24 hours. Culture supernatants were assayed for CCL22. Plates with adherent cells were washed with PBS and assayed for immunoreactivity of surface markers such as CD169, Clec9a or Clec12a using fuorescent tag- or biotin-labeled anti-human antibodies purchased from Miltenyi Biotec (Auburn, CA) and the secondary detection reagent recommended by the manufacturer.
The THP1-Dual cell differentiation assay was carried out as described above in Example 2, using immX3 peptide (330 nM) in all samples plus the indicated helper or inhibitor molecule. Molecules were purched from Cayman Chemical Company (Ann Arbor, MI) or Sigma Chemical Company (St. Louis, MO). AU=arbitrary ELISA units. **p<0.01.

[2] = tested on: THP1-Dual monocyte reporter cell line; assay: THP1-Dual myeloid cell differentiation assay (PMA protocol); assay type: cell-based, human; settings: PMA 24 h, then peptide 0.33 uM or 0.66 uM 24 h; for CD169+ (AU): relative to immX3AVD = 100; for CCL22: culture supernatant
Protocol: as §1

[3] = PIP-binding membrane assay (Membrane Lipid Strips); parameters: key: —: −−− no binding; +++ strong binding; settings: 400 ng peptide
Protocol: N-terminally biotinylated versions of the peptides listed below were used in various assays listed in the examples. For the two types of phosphatidylinositon phosphate (PIP)-binding assays, imm1-imm6 peptides were used.
In the PIP-binding membrane assay, 400 ng of each peptide was bound to Membrane Lipid Strips (Catalog # P-6002, Echelon Biosciences, Salt Lake City, UT) and developed according to the manufacturer's instructions. Binding to PIPs was as follows (−−− no binding; +++ strong binding): […]

[4] = tested on: C2C12 myoblastic cell line; assay: C2C12 myoblast differentiation, creatine kinase; assay type: cell-based; settings: 0.66 uM peptide, 96 hours; helper none; relative to immX3AVD = 100
Protocol: Differentiation assays employed the C2C12 myoblastic cell line (ATCC, Manassas, VA) seeded at 2×10e5 cells per well in 96-well plates and cultured at 37 degrees C. in DMEM growth medium plus 10% fetal bovine serum and 1% penicillin/streptomycin. For differentiation, 10% fetal bovine serum was replaced with 2% horse serum. 0.66 uM peptide was then added, and incubation continued for an additional 96 hours. Plates with adherent cells were washed with PBS, lysed with Lytic-M buffer (Sigma Chemical Company, St. Louis, MO) and the lysates were assayed for creatine kinase using a kit purchased from Bioassay Systems (Cat. #ECPK-100, Hayward, CA). Effects were visually confirmed with microscopy tracking myotube formation. Results were expressed as units per milliliter relative to the control immX3AVD peptide, and p values were also calculated and shown relative to control immX3AVD peptide (** p<0.05 versus immX3AVD control; avg±SD).

[5] = immX3 peptide 330 nM plus helper at 15 uM
[6] = immX3 peptide 330 nM plus helper at 2 uM
[7] = immX3 peptide 330 nM plus helper at 1 mM
[8] = immX3 peptide 330 nM plus helper at 0.1 ug/ml
[9] = immX3 peptide 330 nM plus helper at 1 ug/ml

Nc1nc2c(ncn2[C@@H]2O[C@@H]3COP(=O)(O)O[C@H]4[C@@H](O)[C@H](n5cnc6c(N)ncnc65)O[C@@H]4COP(=O)(O)O[C@@H]2[C@@H]3O)c(=O)[nH]1 [2′3′-cGAMP]
CD169 (AU) [1, 5]: 168.5 ± 10.9** AU

Sc1ncnc2nc[nH]c12 [6-mercaptopurine]
CD169 (AU) [1, 6]: 104.9 ± 4.0 AU

C=C(c1ccc(C(=O)O)cc1)c1cc2c(cc1C)C(C)(C)CCC2(C)C [Bexarotene]
CD169 (AU) [1, 6]: 96.9 ± 6.8 AU

Oc1ccc(C(c2c[nH]c3ccccc23)c2c[nH]c3ccccc23)cc1 [C-DIM8]
CD169 (AU) [1, 6]: 91.0 ± 24.8 AU

Clc1ccc(C(c2c[nH]c3ccccc23)c2c[nH]c3ccccc23)cc1 [C-DIM12]
CD169 (AU) [1, 6]: 119.0 ± 3.7** AU

C=C1/C(=C\C=C2/CCC[C@]3(C)[C@@H]([C@H](C)CCCC(C)(C)O)CC[C@@H]23)C[C@@H](O)C[C@@H]1O [Calcitriol]
CD169 (AU) [1, 6]: 102.0 ± 11.3 AU

O=C1CCc2cc(OCCCCc3nnnn3C3CCCCC3)ccc2N1 [Cilostazol]
CD169 (AU) [1, 6]: 99.4 ± 27.7 AU

C[C@H]1C[C@H]2[C@@H]3CCC4=CC(=O)C=C[C@]4(C)[C@@]3(F)[C@@H](O)C[C@]2(C)[C@@]1(O)C(=O)CCl [Clobetasol]
CD169 (AU) [1, 6]: 98.5 ± 5.5 AU

Nc1nc2c(ncn2[C@@H]2O[C@@H]3COP(=O)(O)O[C@H]4[C@@H](O)[C@H](n5cnc6c(=O)[nH]c(N)nc65)O[C@@H]4COP(=O)(O)O[C@H]3[C@H]2O)c(=O)[nH]1 [Cyclic-di-GMP]
CD169 (AU) [1, 5]: 142.9 ± 9.7** AU

CCCCCCCC(=O)c1c(O)cc(O)cc1CC(=O)OCC [Cytosporone B]
CD169 (AU) [1, 6]: 120.3 ± 6.4** AU

O=C(CO)[C@@H](O)[C@@H](O)[C@H](O)[C@H](O)CO [D-mannoheptulose]
CD169 (AU) ([1]; immX3 peptide 330 nM plus helper at 50 uM): 140.8 ± 12.4** AU

OC[C@H]1O[C@H](OC[C@H]2O[C@H](O[C@]3(CO)O[C@H](CO)[C@@H](O)[C@@H]3O)[C@H](O)[C@@H](O)[C@@H]2O)[C@H](O)[C@@H](O)[C@H]1O [D-raffinose]
CD169 (AU) [1, 7]: 111.9 ± 4.0** AU

CN1C[C@H](C(=O)N[C@]2(C)O[C@@]3(O)[C@@H]4CCCN4C(=O)[C@H](Cc4ccccc4)N3C2=O)C[C@@H]2c3cccc4[nH]cc(c34)C[C@H]21 [Dihydroergotamine]
CD169 (AU) [1, 6]: 170.3 ± 20.7** AU

O=C(O)CC1CC(c2ccccc2)=NO1 (stereo not shown) [GIT27]
CD169 (AU) [1, 6]: 166.5 ± 34.1** AU

CN1c2ccc([N+](=O)[O-])cc2N=C(c2ccc(C(=O)O)cc2)c2cc3c(cc21)C(C)(C)CCC3(C)C [HX531]
CD169 (AU) [1, 6]: 90.4 ± 6.2 AU

CN1c2ccccc2N=C(c2ccc(C(=O)O)cc2)c2cc3c(cc21)C(C)(C)CCC3(C)C [HX600]
CD169 (AU) [1, 6]: 110.5 ± 19.0 AU

O=C(O)/C=C/C(=O)O [L-fumarate]
CD169 (AU) [1, 7]: 101.5 ± 7.3 AU

C[C@H](O)C(=O)O [L-lactate]
CD169 (AU) ([1]; immX3 peptide 330 nM plus helper at 300 uM): 121.1 ± 5.6** AU

Cc1cc2c(cc1C1(c3ccc(C(=O)O)cn3)CC1)C(C)(C)CCC2(C)C [LG100268]
CD169 (AU) [1, 6]: 76.8 ± 11.9** AU

O=C(NCc1ccco1)c1ccc2c(c1)N(Cc1c(F)cccc1Cl)C(=O)CS2 [Peptide G10, G10]
CD169 (AU) [1, 6]: 143.4 ± 17.8** AU

CC(=O)S[C@@H]1CC2=CC(=O)CC[C@]2(C)[C@H]2CC[C@@]3(C)[C@@H](CC[C@@]34CCC(=O)O4)[C@H]12 [Spironolactone]
CD169 (AU) [1, 6]: 120.1 ± 10.5** AU

CC(=O)/C=C1\C(=O)N(C)c2ccccc21 [Supercinnamaldehyde]
CD169 (AU) [1, 6]: 159.7 ± 16.6** AU

CSCC[C@H](NC(=O)[C@H](CO)NC(=O)[C@@H](NC(=O)[C@H](CCC(=O)O)NC(=O)[C@H](CS)NC(=O)[C@H](CCC(N)=O)NC(=O)[C@H](CCCNC(=N)N)NC(=O)[C@H](CO)NC(=O)[C@H](Cc1c[nH]cn1)NC(=O)[C@H](Cc1ccc(O)cc1)NC(=O)[C@H](Cc1ccccc1)NC(=O)CNC(=O)[C@H](CC(N)=O)NC(=O)[C@@H](N)CCCCN)[C@@H](C)O)C(=O)N[C@@H](CC(=O)O)C(=O)NCC(=O)N[C@@H](CCC(=O)O)C(=O)N[C@@H](C)C(=O)NCC(=O)N[C@@H](CC(C)C)C(=O)N[C@@H](CS)C(=O)N[C@@H](Cc1c[nH]c2ccccc12)C(=O)O [imm1] (H-KNGFYHSRQCETSMDGEAGLCW-OH)
CD169+ (AU) [2]: 3.1 ± 2.2 AU | Binding to Phosphatidylinositol [3]: — | Binding to PtdIns(3,4,5)P [PIP3] [3]: — | Binding to PtdIns(4)P [PIP1] [3]: — | Binding to PtdIns(4,5)P [PIP2] [3]: —

CC(C)[C@H](NC(=O)[C@H](Cc1ccccc1)NC(=O)[C@H](Cc1c[nH]c2ccccc12)NC(=O)[C@H](CS)NC(=O)[C@H](Cc1ccccc1)NC(=O)CNC(=O)[C@H](CCCNC(=N)N)NC(=O)[C@H](CCCCN)NC(=O)[C@H](CCCNC(=N)N)NC(=O)CNC(=O)[C@H](CCCCN)NC(=O)[C@H](CO)NC(=O)[C@@H]1CCCN1C(=O)[C@H](CCCNC(=N)N)NC(=O)[C@H](CS)NC(=O)[C@H](CCC(N)=O)NC(=O)[C@H](CCCCN)NC(=O)[C@H](CCCCN)NC(=O)[C@H](CCCCN)NC(=O)[C@H](Cc1ccc(O)cc1)NC(=O)[C@H](Cc1ccccc1)NC(=O)CNC(=O)[C@H](CCCCN)NC(=O)[C@@H](N)CCCCN)C(=O)N[C@@H](CO)C(=O)O [immX3FVS] (H-KKGFYKKKQCRPSKGRKRGFCWFVS-OH)
CD169+ (AU) [2]: 109.4 ± 4.5 AU | CCL22 [2]: 251.3 ± 5.8 pg/mL

GM-CSF
CD169 (AU) [1, 8]: 147.0 ± 15.3** AU

HP-B-cyclodextrin
CD169 (AU) [1, 7]: 121.1 ± 4.6** AU

Heparin
CD169 (AU) [1, 9]: 34.1 ± 2.9** AU

Holotransferrin [Holotransferrin (Tf)]
CD169 (AU) ([1]; immX3 peptide 330 nM plus helper at 0.8 ug/ml): 126.8 ± 9.3** AU

Hyaluronan [Hyaluronan(HMW-HA)]
CD169 (AU) ([1]; immX3 peptide 330 nM plus helper at 0.6 ug/ml): 110.5 ± 10.2 AU

KKGFYKKKQCRPSKGRKRGFCW(dA)VD (KKGFYKKKQCRPSKGRKRGFCW[dA]VD; cysteine pairing not given here) [immX3dAVD]
CD169+ (AU) [2]: 104.3 ± 6.1 AU | CCL22 [2]: 247.3 ± 16.1 pg/mL

Leptin
CD169 (AU) [1, 9]: 103.3 ± 11.6 AU

NGLLKIKKGFYKKKQCRPSKGRKRGFCWAVD [immX3K4e + 1]
CD169+ (AU) [2]: 128.4 ± 1.4 AU | Creatine Kinase Act. [4]: 178.4 ± 7.6** units per milliliter

B1: CSF1 (protein, UniProt P09603 33-554, looked up)
Macrophage colony-stimulating …: EEVSEYCSHMIGSGHLQSLQRLIDSQMETSCQITFEFVDQEQLKDPVCYLKKAFLLVQDIMEDTMRFRDNTPNAIAIVQLQELSLRLKSCFTKDYEEHDKACVRTFYETPLQLLEKVKNVFNETKNLLDKDWNIFSKNCNNSFAECSSQDVVTKPDCNCLYPKAIPSSDPASVSPHQPLAPSMAPVAGLTWEDSEGTEGSSLLPGEQPLHTVDPGSAKQRPPRSTCQSFEPPETPVVKDSTIGGSPQPRPSVGAFNPGMEDILDSAMGTNWVPEEASGEASEIPVPQGTELSPSRPGGGSMQTEPARPSNFLSASSPLPASAKGQQPADVTGTALPRVGPVRPTGQDWNHTPQKTDHPSALLRDPPEPGSPRISSLRPQGLSNPSTLSAQPQLSRSHSSGSVLPLGELEGRRSTRDRRSPAEPEGGPASEGAARPLPRFNSVPLTDTGHERQSEGSFSPQLQESVFHLLVPSVILVLLAVGGLLFYRWRRRSHQEPQRADSPLEQPEGSPLTQDDRQVELPV
notes: Growth factor class
CD169 (AU) [1, 8]: 108.0 ± 32.3 AU
